In the assay the test system is Zebrafish (Danio rerio) larvae. Nature of the assay: Behavioral assay in 6-OHDA zebrafish larvae model. It is filed as in vivo. The following applies: larvae 4 dpf, 750 µM 6-OHDA 24 h, then peptide 50 µM for 24 h; filmed 5 min, ToxTrac; 12 embryos per group. How it is done:
Wild-type adult D. rerio (zebrafish) were obtained from a licensed commercial distributor. They were maintained on a 14 h light–10 h dark photoperiod in fresh filtered water at 28 °C and fed twice a day with dry food and once a day with Artemia sp. Reproduction was performed in individual fish tanks in a 1 male–1 female proportion, with pebbles and artificial plants. Eggs were collected, selected and maintained in an incubator at 28 °C until 4 days post fertilization (dpf). This study followed the guidelines of the National Council for Animal Experimentation Control (CONCEA) and was approved by the Ethics Commission for Animal Use (CEUA) at the Bioscience Institute of São Paulo State University (São Vicente, Brazil: Protocol Number 06/2023, approved on 22 June 2023).
Zebrafish (Danio rerio) larvae at 4 dpf were transferred to a 96-well plate, a single larva per well. Larvae were treated with 750 µM 6-OHDA in system water for 24 h in an incubator at 28 °C. Then, solution was changed to system water with each peptide in different concentrations—10 µM, 20 µM, 30 µM, 40 µM and 50 µM [47]—and larvae were incubated at 28 °C for another 24 h. Finally, each larva was filmed for 5 min, and videos were processed by an automated tracking system (ToxTrac Version 2.96). Analysis parameters were mean speed (mm/s) and total distance swum (mm) (Figure 8). Statistical analysis was performed using a one-way analysis of variance (ANOVA) test followed by Dunnett’s test for multiple comparisons. Data were statistically analyzed using GraphPad Prism Software (GraphPad Software Inc., San Diego, CA, USA).
Figure 8 Zebrafish larva model. Zebrafish larvae were immersed in 6-OHDA 750 µM for 24 h, then in each peptide at 10 µM, 20 µM, 30 µM, 40 µM or 50 µM for 24 h. Videos were recorded for 5 min and then analyzed by software (ToxTrac Version 2.96). Parameters were mean speed and distance traveled.

In the case of “TLDLNEMDYIQRGGPE [p-MRPS36, peptide derived from mitochondrial ribosomal protein S36]”, the “Mean speed, compared to the control group” value is listed as “statistically equal results to the control group” and the “Total distance swum, compared to the control group” value is reported as “statistically equal results to the control group”.

With GVGFATRQV [p-FABP7], the “Mean speed, compared to the control group” value is “statistically equal results to the control group” and the “Total distance swum, compared to the control group” value was “statistically equal results to the control group”.

As for “TIEQEKQAGSS [p-Tbeta4, […], derived from thymosin beta-4]”, the “Mean speed, compared to the control group” value is listed as “statistically equal results to the control group” and the “Total distance swum, compared to the control group” value is listed as “statistically equal results to the control group”.

(Values after publication PMC11900122, “Study of Intracellular Peptides of the Central Nervous System of Zebrafish (Danio rerio) in a Parkinson’s Disease Model” (International Journal of Molecular Sciences, 2025).)
